# In ChEMBL document CHEMBL5291721, “A preclinical secondary pharmacology resource illuminates target-adverse drug reaction associations of marketed drugs” (Nat Commun, 2023):
# “And” between values parts separate entries of the source, which are not always exact repeats. Identical values can stand only once.
# How the values were obtained:
# [1] = target: 5-hydroxytryptamine receptor 7 (Homo sapiens, UniProt P34969)
# Substance-K receptor = target: T1, Substance-K receptor (Homo sapiens, UniProt P21452)
# T1 sequence (P21452 whole entry): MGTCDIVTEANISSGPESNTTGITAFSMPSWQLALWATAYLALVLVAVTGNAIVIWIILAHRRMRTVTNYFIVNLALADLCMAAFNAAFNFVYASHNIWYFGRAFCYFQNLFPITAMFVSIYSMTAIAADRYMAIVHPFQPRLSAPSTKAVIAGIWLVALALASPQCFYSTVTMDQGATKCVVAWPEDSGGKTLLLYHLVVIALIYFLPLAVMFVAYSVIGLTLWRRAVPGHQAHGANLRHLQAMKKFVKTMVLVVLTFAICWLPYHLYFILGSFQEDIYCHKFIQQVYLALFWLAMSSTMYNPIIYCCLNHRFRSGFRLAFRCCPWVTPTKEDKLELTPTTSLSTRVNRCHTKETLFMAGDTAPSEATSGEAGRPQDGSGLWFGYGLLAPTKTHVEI
# [2] = target: Sodium channel protein type 5 subunit alpha (Homo sapiens, UniProt Q14524); format: functional, cell-based
# [3] = target: Synaptic vesicular amine transporter (Rattus norvegicus, UniProt Q01827); format: functional
# Histamine H1 receptor = Histamine H1 receptor (Homo sapiens, UniProt P35367); format: functional, cell-based
# Androgen receptor = target: T2, Androgen receptor (Rattus norvegicus, UniProt P15207); format: functional
# T2 sequence (P15207 whole entry): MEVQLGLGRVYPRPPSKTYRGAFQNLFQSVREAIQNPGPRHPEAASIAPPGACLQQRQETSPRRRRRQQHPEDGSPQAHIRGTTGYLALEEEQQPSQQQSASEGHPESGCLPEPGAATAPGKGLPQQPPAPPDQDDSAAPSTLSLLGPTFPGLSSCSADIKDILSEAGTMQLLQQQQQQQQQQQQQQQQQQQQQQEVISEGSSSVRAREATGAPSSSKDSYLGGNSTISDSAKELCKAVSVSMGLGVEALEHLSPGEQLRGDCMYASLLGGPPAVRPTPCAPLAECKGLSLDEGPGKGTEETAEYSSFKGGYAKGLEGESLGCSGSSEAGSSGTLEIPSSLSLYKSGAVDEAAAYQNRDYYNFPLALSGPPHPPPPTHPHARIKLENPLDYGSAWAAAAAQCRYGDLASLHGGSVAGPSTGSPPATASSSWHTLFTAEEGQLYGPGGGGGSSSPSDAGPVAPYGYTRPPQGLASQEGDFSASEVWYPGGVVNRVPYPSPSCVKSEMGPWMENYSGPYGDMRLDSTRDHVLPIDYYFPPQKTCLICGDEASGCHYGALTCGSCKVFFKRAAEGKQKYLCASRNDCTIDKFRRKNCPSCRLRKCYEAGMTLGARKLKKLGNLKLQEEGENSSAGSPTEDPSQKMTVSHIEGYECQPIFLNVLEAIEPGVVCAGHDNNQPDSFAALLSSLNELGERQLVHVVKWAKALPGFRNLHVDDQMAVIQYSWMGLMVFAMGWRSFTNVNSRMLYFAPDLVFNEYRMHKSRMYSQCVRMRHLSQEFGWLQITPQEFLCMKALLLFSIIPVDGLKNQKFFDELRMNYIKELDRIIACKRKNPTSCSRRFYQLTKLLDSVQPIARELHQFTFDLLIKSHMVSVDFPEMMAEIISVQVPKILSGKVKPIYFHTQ
# [4] = target: T3, Peroxisome proliferator-activated receptor alpha (Homo sapiens, UniProt Q07869); format: functional
# T3 sequence (Q07869 whole entry): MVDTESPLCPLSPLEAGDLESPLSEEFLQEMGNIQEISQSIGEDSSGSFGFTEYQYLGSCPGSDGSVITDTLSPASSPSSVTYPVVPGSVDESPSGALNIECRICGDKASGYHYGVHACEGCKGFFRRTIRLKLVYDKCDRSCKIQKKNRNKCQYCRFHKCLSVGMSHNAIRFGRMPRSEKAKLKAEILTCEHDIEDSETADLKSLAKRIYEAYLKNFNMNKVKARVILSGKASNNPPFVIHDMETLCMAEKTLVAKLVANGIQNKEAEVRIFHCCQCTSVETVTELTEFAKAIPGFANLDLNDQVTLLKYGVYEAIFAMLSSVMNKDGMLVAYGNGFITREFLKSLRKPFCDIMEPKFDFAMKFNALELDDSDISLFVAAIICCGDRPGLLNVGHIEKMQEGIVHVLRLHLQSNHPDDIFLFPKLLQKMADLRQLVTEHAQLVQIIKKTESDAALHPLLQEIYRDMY
# [5] = target: Epidermal growth factor receptor (Homo sapiens, UniProt P00533); format: functional
# [6] = target: Receptor tyrosine-protein kinase erbB-2 (Homo sapiens, UniProt P04626); format: functional
# Glucocorticoid receptor = target: T4, Glucocorticoid receptor (Homo sapiens, UniProt P04150); format: functional
# T4 sequence (P04150 whole entry): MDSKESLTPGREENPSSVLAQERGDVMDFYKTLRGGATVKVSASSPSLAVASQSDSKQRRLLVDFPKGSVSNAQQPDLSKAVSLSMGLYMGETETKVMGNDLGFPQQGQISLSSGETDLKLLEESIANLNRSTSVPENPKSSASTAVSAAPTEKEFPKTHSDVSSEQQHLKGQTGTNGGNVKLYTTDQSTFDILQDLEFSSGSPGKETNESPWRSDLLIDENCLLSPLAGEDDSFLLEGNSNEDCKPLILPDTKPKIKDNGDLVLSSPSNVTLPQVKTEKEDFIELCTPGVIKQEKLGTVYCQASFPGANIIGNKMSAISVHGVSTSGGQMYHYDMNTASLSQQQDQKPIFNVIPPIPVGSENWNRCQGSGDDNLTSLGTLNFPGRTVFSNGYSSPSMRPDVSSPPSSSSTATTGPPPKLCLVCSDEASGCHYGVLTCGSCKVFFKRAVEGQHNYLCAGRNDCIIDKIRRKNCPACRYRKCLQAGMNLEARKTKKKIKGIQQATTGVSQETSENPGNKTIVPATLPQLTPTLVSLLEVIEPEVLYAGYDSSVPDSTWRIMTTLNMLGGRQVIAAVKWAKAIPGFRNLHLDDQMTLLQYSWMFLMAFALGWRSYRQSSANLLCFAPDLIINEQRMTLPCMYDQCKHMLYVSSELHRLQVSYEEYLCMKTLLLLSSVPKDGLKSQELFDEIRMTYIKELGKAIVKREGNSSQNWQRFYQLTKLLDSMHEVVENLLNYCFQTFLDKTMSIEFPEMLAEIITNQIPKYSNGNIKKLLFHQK
# [7] = target: Vascular endothelial growth factor receptor 2 (Homo sapiens, UniProt P35968); format: functional
# Further: assay procedure not described here.
# Sequence of Receptor tyrosine-protein kinase erbB-2 (P04626 whole entry): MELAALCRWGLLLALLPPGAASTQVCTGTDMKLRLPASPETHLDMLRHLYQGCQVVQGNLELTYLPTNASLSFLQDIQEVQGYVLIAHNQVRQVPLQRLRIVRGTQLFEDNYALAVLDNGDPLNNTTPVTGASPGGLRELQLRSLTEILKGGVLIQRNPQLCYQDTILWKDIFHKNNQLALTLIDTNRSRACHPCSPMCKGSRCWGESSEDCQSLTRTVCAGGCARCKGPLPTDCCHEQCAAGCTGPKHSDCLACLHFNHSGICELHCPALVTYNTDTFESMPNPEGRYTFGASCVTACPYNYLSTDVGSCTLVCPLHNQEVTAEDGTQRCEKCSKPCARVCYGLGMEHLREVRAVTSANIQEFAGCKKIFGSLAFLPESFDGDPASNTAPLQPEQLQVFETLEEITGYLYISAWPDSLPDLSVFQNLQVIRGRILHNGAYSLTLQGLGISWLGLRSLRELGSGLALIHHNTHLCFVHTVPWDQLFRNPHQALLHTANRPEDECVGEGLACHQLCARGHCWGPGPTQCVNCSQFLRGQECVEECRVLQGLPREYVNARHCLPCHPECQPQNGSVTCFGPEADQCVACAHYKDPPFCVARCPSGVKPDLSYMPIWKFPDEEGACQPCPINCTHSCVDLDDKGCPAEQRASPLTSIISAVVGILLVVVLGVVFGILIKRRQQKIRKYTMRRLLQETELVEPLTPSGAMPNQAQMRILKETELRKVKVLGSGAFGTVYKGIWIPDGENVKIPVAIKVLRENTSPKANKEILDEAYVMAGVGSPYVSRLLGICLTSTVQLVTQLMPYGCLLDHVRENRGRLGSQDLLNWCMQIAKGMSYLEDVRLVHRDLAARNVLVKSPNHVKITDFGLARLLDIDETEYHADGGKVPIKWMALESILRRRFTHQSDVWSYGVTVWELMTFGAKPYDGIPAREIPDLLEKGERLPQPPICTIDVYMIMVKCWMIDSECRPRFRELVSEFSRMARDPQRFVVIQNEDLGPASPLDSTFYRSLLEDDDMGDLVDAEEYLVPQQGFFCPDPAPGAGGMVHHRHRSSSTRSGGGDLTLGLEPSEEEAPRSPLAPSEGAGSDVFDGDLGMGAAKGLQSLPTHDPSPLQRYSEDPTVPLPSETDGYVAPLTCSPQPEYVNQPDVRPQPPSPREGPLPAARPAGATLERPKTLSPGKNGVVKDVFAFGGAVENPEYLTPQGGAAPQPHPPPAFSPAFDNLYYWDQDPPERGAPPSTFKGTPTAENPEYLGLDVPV
# Sequence of Histamine H1 receptor (P35367 whole entry): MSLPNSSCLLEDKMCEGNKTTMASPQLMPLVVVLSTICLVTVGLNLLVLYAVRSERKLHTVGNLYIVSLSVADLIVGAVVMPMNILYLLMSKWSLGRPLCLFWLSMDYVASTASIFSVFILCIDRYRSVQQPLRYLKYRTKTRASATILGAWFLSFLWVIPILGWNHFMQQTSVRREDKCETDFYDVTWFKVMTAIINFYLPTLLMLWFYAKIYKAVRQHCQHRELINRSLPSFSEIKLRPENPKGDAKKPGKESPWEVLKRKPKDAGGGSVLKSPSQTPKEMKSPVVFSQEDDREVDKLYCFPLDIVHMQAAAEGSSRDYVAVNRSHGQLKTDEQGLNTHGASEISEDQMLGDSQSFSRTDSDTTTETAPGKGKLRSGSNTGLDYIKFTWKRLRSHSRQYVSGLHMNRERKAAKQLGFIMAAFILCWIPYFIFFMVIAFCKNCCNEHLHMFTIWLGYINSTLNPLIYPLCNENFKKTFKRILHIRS
# Sequence of Sodium channel protein type 5 subunit alpha (Q14524 whole entry): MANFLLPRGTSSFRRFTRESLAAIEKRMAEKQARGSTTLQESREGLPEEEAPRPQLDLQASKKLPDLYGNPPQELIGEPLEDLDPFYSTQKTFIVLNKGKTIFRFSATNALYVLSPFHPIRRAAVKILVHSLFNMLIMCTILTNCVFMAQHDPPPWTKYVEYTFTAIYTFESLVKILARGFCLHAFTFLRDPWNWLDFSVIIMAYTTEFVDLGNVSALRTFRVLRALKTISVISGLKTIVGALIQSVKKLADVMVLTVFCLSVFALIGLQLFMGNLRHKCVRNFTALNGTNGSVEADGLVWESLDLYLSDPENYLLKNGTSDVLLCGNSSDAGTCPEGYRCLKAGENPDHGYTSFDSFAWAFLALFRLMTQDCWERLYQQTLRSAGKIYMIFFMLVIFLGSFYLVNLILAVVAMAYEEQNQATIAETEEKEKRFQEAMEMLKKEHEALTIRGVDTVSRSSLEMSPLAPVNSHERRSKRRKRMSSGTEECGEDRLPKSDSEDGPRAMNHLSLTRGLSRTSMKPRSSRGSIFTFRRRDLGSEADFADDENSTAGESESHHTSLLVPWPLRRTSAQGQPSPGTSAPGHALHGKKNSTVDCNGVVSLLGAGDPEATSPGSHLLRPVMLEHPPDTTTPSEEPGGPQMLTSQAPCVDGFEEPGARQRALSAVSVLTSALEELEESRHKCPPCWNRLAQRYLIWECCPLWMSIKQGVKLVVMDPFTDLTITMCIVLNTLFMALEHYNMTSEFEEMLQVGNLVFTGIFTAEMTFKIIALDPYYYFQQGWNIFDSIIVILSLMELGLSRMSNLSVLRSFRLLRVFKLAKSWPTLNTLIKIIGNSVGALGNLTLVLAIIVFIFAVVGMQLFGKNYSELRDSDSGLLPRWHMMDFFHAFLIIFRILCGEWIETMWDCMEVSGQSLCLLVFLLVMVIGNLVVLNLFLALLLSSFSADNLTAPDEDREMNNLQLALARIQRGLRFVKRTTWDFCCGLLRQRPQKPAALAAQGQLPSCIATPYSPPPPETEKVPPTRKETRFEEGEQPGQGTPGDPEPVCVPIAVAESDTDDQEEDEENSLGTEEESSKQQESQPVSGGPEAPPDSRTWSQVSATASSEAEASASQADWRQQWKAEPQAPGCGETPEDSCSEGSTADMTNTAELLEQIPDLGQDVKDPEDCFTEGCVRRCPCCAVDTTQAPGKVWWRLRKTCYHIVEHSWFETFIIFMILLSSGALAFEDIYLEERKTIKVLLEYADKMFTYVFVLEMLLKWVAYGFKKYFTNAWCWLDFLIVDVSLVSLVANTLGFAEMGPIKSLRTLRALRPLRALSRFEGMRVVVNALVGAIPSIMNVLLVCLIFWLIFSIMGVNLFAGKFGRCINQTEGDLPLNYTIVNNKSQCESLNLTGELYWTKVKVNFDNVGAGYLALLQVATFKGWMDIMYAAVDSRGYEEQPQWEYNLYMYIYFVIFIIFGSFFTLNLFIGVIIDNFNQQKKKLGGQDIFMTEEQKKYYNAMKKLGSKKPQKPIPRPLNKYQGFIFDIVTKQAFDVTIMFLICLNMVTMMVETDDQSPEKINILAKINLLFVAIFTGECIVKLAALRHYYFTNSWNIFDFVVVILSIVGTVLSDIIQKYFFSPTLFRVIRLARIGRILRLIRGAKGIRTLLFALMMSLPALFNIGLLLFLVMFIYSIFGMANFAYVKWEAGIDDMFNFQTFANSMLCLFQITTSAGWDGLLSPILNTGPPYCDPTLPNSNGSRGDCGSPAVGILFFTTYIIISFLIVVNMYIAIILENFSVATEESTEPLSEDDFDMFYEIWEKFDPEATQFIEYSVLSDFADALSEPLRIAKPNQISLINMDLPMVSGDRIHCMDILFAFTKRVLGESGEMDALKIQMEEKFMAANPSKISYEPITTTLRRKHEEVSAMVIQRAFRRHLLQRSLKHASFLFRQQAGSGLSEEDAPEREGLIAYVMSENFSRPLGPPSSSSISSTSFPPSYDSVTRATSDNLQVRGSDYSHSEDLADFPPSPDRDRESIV
# Sequence of Vascular endothelial growth factor receptor 2 (P35968 whole entry): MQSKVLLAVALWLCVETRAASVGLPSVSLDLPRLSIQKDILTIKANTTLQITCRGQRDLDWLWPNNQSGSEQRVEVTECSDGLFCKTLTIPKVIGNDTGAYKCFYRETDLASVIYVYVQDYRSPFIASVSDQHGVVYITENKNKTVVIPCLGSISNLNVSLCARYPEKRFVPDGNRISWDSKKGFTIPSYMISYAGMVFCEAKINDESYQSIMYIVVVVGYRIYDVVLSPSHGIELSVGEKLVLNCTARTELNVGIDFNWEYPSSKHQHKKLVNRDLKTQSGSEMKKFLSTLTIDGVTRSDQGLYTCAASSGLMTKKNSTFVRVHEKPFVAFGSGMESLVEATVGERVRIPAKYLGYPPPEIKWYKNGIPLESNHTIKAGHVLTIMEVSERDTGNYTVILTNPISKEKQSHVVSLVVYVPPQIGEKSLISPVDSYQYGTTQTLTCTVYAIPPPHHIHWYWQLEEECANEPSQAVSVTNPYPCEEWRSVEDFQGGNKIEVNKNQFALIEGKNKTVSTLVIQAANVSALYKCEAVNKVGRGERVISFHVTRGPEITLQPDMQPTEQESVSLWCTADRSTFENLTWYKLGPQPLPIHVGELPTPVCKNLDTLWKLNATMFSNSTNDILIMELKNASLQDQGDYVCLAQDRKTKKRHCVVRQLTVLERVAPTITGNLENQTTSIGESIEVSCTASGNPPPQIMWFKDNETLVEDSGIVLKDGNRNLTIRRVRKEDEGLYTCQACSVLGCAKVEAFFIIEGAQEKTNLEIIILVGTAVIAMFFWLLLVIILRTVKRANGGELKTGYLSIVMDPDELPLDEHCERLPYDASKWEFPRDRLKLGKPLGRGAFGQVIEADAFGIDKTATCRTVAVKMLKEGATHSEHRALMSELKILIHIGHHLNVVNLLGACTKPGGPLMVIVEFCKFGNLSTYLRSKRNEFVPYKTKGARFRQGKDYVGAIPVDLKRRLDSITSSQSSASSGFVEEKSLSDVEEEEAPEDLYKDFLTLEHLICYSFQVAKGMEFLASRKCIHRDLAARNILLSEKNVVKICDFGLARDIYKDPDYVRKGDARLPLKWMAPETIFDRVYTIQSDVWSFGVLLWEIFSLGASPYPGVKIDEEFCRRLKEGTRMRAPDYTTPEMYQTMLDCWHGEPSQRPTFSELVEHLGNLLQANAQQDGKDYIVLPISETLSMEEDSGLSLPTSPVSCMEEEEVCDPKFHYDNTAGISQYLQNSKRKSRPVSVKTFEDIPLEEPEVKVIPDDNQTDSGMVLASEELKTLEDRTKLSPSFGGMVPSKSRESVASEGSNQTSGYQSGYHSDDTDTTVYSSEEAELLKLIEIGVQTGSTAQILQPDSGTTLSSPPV
Compound,AC50 [1],AC50 [2],AC50 (Androgen receptor),AC50 (Glucocorticoid receptor),also measured
Cc1onc(-c2ccccc2)c1-c1ccc(S(N)(=O)=O)cc1 [VALDECOXIB],> 10 µM,–,–,–,AC50 (Substance-K receptor): > 10 µM
OC[C@H]1O[C@@H](c2ccc(Cl)c(Cc3ccc(O[C@H]4CCOC4)cc3)c2)[C@H](O)[C@@H](O)[C@@H]1O [EMPAGLIFLOZIN],–,> 50 µM,–,–,AC50 [3]: 16 µM
CCCN(CCC)C(=O)Cc1c(-c2ccc(Cl)cc2)nc2ccc(Cl)cn12 [ALPIDEM],> 10 µM,–,–,–,AC50 (Substance-K receptor): > 10 µM
CC(C)N(CCC(C(N)=O)(c1ccccc1)c1ccccn1)C(C)C (stereo not given) [DISOPYRAMIDE],–,> 50 µM,–,–,AC50 (Histamine H1 receptor): > 30 µM
CCCC(CCC)C(=O)O [VALPROIC ACID],> 10 µM,–,–,–,AC50 (Substance-K receptor): > 10 µM
O=C1CCc2cc(OCCCCc3nnnn3C3CCCCC3)ccc2N1 [CILOSTAZOL],–,> 50 µM,–,–,–
C[C@@H](NCCCc1cccc(C(F)(F)F)c1)c1cccc2ccccc12,–,–,> 30 µM,–,AC50 (Histamine H1 receptor): > 30 µM
C=C[C@H]1C[N@@]2CC[C@H]1C[C@@H]2[C@@H](O)c1ccnc2ccc(OC)cc12 [QUINIDINE],–,–,–,–,AC50 (Histamine H1 receptor): > 30 µM
OC[C@H]1O[C@@](CO)(O[C@H]2O[C@H](CO)[C@@H](O)[C@H](O)[C@H]2O)[C@@H](O)[C@@H]1O [SUCROSE],–,–,–,–,AC50 (Histamine H1 receptor): > 30 µM
CO[C@H]1/C=C/O[C@@]2(C)Oc3c(C)c(O)c4c(O)c(c(/C=N/N5CCN(C)CC5)c(O)c4c3C2=O)NC(=O)/C(C)=C\C=C\[C@H](C)[C@H](O)[C@@H](C)[C@@H](O)[C@@H](C)[C@H](OC(C)=O)[C@@H]1C [RIFAMPIN],> 10 µM,–,–,–,AC50 [4]: > 30 µM
C=CC[C@@H]1/C=C(\C)C[C@H](C)C[C@H](OC)[C@H]2O[C@@](O)(C(=O)C(=O)N3CCCC[C@H]3C(=O)O[C@H](/C(C)=C/[C@@H]3CC[C@@H](O)[C@H](OC)C3)[C@H](C)[C@@H](O)CC1=O)[C@H](C)C[C@@H]2OC [TACROLIMUS ANHYDROUS],> 10 µM,45 µM and > 30 µM,> 30 µM,> 30 µM,AC50 [5]: > 30 µM; AC50 [6]: > 30 µM; AC50 [7]: > 30 µM
CC(C)C[C@H](NC(=O)CNC(=O)c1cc(Cl)ccc1Cl)B(O)O [IXAZOMIB],–,–,–,–,AC50 [3]: > 30 µM
CC(=O)O[C@]1(C(C)=O)CC[C@H]2[C@@H]3C=C(C)C4=CC(=O)CC[C@@H]4[C@H]3CC[C@@]21C [NOMEGESTROL ACETATE],–,–,> 30 µM,–,–
COc1ccccc1Oc1c(NS(=O)(=O)c2ccc(C(C)(C)C)cc2)nc(-c2ncccn2)nc1OCCO [BOSENTAN],–,–,–,> 30 µM,AC50 (Histamine H1 receptor): > 30 µM; AC50 [4]: > 30 µM
CCN1CCN(Cc2ccc(Nc3ncc(F)c(-c4cc(F)c5nc(C)n(C(C)C)c5c4)n3)nc2)CC1 [ABEMACICLIB],–,> 50 µM,> 30 µM,> 30 µM,AC50 [5]: 9.5 µM; AC50 [6]: > 30 µM; AC50 [7]: 14 µM
COc1ccc(CC2c3cc(OC)c(OC)cc3CC[N+]2(C)CCC(=O)OCCCCCOC(=O)CC[N+]2(C)CCc3cc(OC)c(OC)cc3C2Cc2ccc(OC)c(OC)c2)cc1OC (stereo not given),–,–,> 30 µM,–,–
N[C@@H](CC(=O)N1CCn2c(nnc2C(F)(F)F)C1)Cc1cc(F)c(F)cc1F [SITAGLIPTIN],> 10 µM,> 150 µM,> 30 µM,> 30 µM,AC50 (Substance-K receptor): > 10 µM
CC(C(=O)O)c1ccc2c(c1)[nH]c1ccc(Cl)cc12 (stereo not given) [CARPROFEN],–,–,–,> 30 µM,AC50 [4]: > 30 µM
CN1C[C@H](C(=O)N[C@]2(C)O[C@@]3(O)[C@@H]4CCCN4C(=O)[C@H](Cc4ccccc4)N3C2=O)C=C2c3cccc4[nH]cc(c34)C[C@H]21 [ERGOTAMINE],–,–,–,> 30 µM,–
CC(C)(O)CNc1nc(Nc2ccnc(C(F)(F)F)c2)nc(-c2cccc(C(F)(F)F)n2)n1 [ENASIDENIB],–,–,–,–,AC50 [3]: 1.8 µM
COc1ccccc1OCCNCC(O)COc1cccc2[nH]c3ccccc3c12 (stereo not given) [CARVEDILOL],1.58 µM,–,> 30 µM,–,–
C[C@@H](Oc1cc(-c2cnn(C3CCNCC3)c2)cnc1N)c1c(Cl)ccc(F)c1Cl [CRIZOTINIB],–,–,> 30 µM,> 30 µM,–
CN(C)CCc1c[nH]c2ccc(Cn3cncn3)cc12 [RIZATRIPTAN],> 10 µM,> 30 µM,–,–,AC50 (Histamine H1 receptor): > 30 µM
O=C1CN(/N=C/c2ccc(-c3ccc([N+](=O)[O-])cc3)o2)C(O)=N1 [DANTROLENE],–,> 50 µM,–,–,–
COc1cc2nccc(Oc3ccc(NC(=O)C4(C(=O)Nc5ccc(F)cc5)CC4)cc3)c2cc1OC [CABOZANTINIB],–,> 3 µM,> 30 µM,> 30 µM,AC50 [6]: 6.2 µM
CC(C)c1nc(N(C)S(C)(=O)=O)nc(-c2ccc(F)cc2)c1/C=C/[C@@H](O)C[C@@H](O)CC(=O)O [ROSUVASTATIN],–,–,–,> 30 µM,AC50 (Histamine H1 receptor): > 30 µM
C[C@H](CCC(=O)O)[C@H]1CC[C@H]2[C@@H]3[C@@H](O)C[C@@H]4C[C@H](O)CC[C@]4(C)[C@H]3CC[C@]12C [URSODIOL],–,–,–,–,AC50 [5]: > 30 µM; AC50 [6]: > 30 µM; AC50 [7]: > 10 µM
CC(S)C(=O)NCC(=O)O (stereo not given) [TIOPRONIN],–,–,> 30 µM,–,–
CCN(CC)CCNC(=O)c1c(C)[nH]c(/C=C2\C(=O)Nc3ccc(F)cc32)c1C [SUNITINIB],> 30 µM,–,5.9 µM,> 10 µM,AC50 [4]: > 30 µM
CC(C)Cc1ccc(C(C)C(=O)O)cc1 (stereo not given) [IBUPROFEN],> 10 µM,–,–,> 30 µM,AC50 [4]: > 30 µM
